Test results: the NIST ThermoML archive (doi:10.1021/je060124c)

Test: mn = molality of the nth substance listed, in mol/kg
Details: Liquid, Capillary tube (Ostwald / Ubbelohde) method

[Cl-].[Li+] [lithium chloride] + O
viscosity [mPa·s]
Details | 100 kPa | 10000 kPa | 20000 kPa | 40000 kPa
298.15 K, m1 = 0.0473 | 0.8971 | 0.8975 | 0.898 | 0.899
298.15 K, m1 = 0.1185 | 0.907 | 0.9075 | 0.908 | 0.909
298.15 K, m1 = 0.4814 | 0.9559 | 0.9562 | 0.957 | 0.958
298.15 K, m1 = 1.242 | 1.062 | 1.062 | 1.062 | 1.062
298.15 K, m1 = 2.621 | 1.289 | 1.29 | 1.291 | 1.292
298.15 K, m1 = 5.897 | 1.925 | 1.926 | 1.927 | 1.928
298.15 K, m1 = 7.863 | 2.535 | 2.536 | 2.537 | 2.538
298.15 K, m1 = 10.11 | 3.426 | 3.427 | 3.428 | 3.429
298.15 K, m1 = 12.7 | 5.414 | 5.416 | 5.418 | 5.42
298.15 K, m1 = 16.39 | 9.44 | 9.443 | 9.449 | 9.451
323.15 K, m1 = 0.0473 | 0.5513 | 0.5535 | 0.5551 | 0.5594
323.15 K, m1 = 0.1185 | 0.5573 | 0.5599 | 0.5618 | 0.5665
323.15 K, m1 = 0.4814 | 0.5884 | 0.5905 | 0.5927 | 0.5974
323.15 K, m1 = 1.242 | 0.6546 | 0.657 | 0.66 | 0.66
323.15 K, m1 = 2.621 | 0.7967 | 0.8 | 0.8028 | 0.8094
323.15 K, m1 = 5.897 | 1.206 | 1.21 | 1.215 | 1.224
323.15 K, m1 = 7.863 | 1.576 | 1.582 | 1.588 | 1.601
323.15 K, m1 = 10.11 | 2.116 | 2.123 | 2.131 | 2.147
323.15 K, m1 = 12.7 | 3.121 | 3.131 | 3.143 | 3.167
323.15 K, m1 = 16.39 | 5.173 | 5.19 | 5.209 | 5.249
348.15 K, m1 = 0.0473 | 0.381 | 0.3839 | 0.387 | 0.392
348.15 K, m1 = 0.1185 | 0.3851 | 0.388 | 0.391 | 0.3968
348.15 K, m1 = 0.4814 | 0.4072 | 0.4099 | 0.4128 | 0.4189
348.15 K, m1 = 1.242 | 0.4536 | 0.4575 | 0.462 | 0.462
348.15 K, m1 = 2.621 | 0.5541 | 0.5583 | 0.5621 | 0.5704
348.15 K, m1 = 5.897 | 0.8423 | 0.8484 | 0.8546 | 0.8667
348.15 K, m1 = 7.863 | 1.102 | 1.109 | 1.117 | 1.133
348.15 K, m1 = 10.11 | 1.466 | 1.476 | 1.487 | 1.507
348.15 K, m1 = 12.7 | 2.075 | 2.09 | 2.104 | 2.134
348.15 K, m1 = 16.39 | 3.293 | 3.316 | 3.339 | 3.386
370.2 K, m1 = 2.621 | 0.428 | 0.4328 | 0.4367 | 0.4449
370.4 K, m1 = 7.863 | 0.8587 | 0.867 | 0.8747 | 0.8907
370.45 K, m1 = 10.11 | 1.127 | 1.138 | 1.148 | 1.169
370.55 K, m1 = 12.7 | 1.53 | 1.544 | 1.559 | 1.587
370.7 K, m1 = 5.897 | 0.6536 | 0.6594 | 0.666 | 0.6781
371.25 K, m1 = 1.242 | 0.3462 | 0.3496 | 0.353 | 0.353
371.43 K, m1 = 0.4814 | 0.3099 | 0.313 | 0.3159 | 0.3217
372.06 K, m1 = 0.1185 | 0.2906 | 0.2912 | 0.2961 | 0.3015
372.33 K, m1 = 0.0473 | 0.2867 | 0.2894 | 0.2921 | 0.2975
372.4 K, m1 = 16.39 | 2.308 | 2.329 | 2.351 | 2.394
397.2 K, m1 = 5.897 | – | 0.5175 | 0.5233 | 0.5352
397.25 K, m1 = 12.7 | – | 1.162 | 1.175 | 1.202
397.6 K, m1 = 10.11 | – | 0.8792 | 0.8897 | 0.9092
398.95 K, m1 = 0.0473 | – | 0.2258 | 0.228 | 0.2335
399.2 K, m1 = 16.39 | – | 1.71 | 1.73 | 1.769
399.31 K, m1 = 7.863 | – | 0.6675 | 0.6758 | 0.6916
399.72 K, m1 = 2.621 | – | 0.3286 | 0.3327 | 0.3409
399.74 K, m1 = 0.1185 | – | 0.2261 | 0.2292 | 0.2339
399.75 K, m1 = 0.4814 | – | 0.24 | 0.243 | 0.2483
400.25 K, m1 = 1.242 | – | 0.2663 | 0.2696 | 0.2696
420.32 K, m1 = 0.4814 | – | 0.2047 | 0.2074 | 0.2127
421.03 K, m1 = 0.1185 | – | 0.1915 | 0.1941 | 0.199
421.96 K, m1 = 5.897 | – | 0.4291 | 0.435 | 0.4463
422.4 K, m1 = 1.242 | – | 0.2248 | 0.2281 | 0.2281
422.51 K, m1 = 10.11 | – | 0.7257 | 0.7354 | 0.7544
423.8 K, m1 = 12.7 | – | 0.9216 | 0.9345 | 0.9595
424.5 K, m1 = 16.39 | – | 1.333 | 1.351 | 1.386
424.51 K, m1 = 7.863 | – | 0.5562 | 0.564 | 0.5785
424.52 K, m1 = 0.0473 | – | 0.1848 | 0.1879 | 0.1928
425.84 K, m1 = 2.621 | – | 0.2701 | 0.2739 | 0.2812
446.9 K, m1 = 12.7 | – | 0.7773 | 0.7897 | 0.8123
447.18 K, m1 = 5.897 | – | 0.3666 | 0.3725 | 0.384
448.7 K, m1 = 10.11 | – | 0.6126 | 0.622 | 0.6415
448.75 K, m1 = 0.1185 | – | 0.1599 | 0.1628 | 0.1675
449.16 K, m1 = 0.0473 | – | 0.1575 | 0.16 | 0.1655
449.75 K, m1 = 16.39 | – | 1.091 | 1.108 | 1.141
449.82 K, m1 = 7.863 | – | 0.4786 | 0.4862 | 0.5006
450.7 K, m1 = 1.242 | – | 0.1876 | 0.1908 | 0.1908
450.74 K, m1 = 0.4814 | – | 0.1681 | 0.1707 | 0.1758
452.54 K, m1 = 2.621 | – | 0.2292 | 0.2329 | 0.2399
470.42 K, m1 = 1.242 | – | 0.1686 | 0.1717 | 0.1717
471.5 K, m1 = 5.897 | – | 0.322 | 0.3277 | 0.3385
471.52 K, m1 = 16.39 | – | 0.9346 | 0.951 | 0.982
472.03 K, m1 = 0.1185 | – | 0.1403 | 0.143 | 0.1477
472.3 K, m1 = 7.863 | – | 0.4267 | 0.4344 | 0.4487
472.52 K, m1 = 12.7 | – | 0.6626 | 0.6742 | 0.6964
473.7 K, m1 = 0.4814 | – | 0.1482 | 0.1509 | 0.1559
473.8 K, m1 = 10.11 | – | 0.5335 | 0.543 | 0.562
474.25 K, m1 = 0.0473 | – | 0.137 | 0.1394 | 0.1441
476.22 K, m1 = 2.621 | – | 0.2026 | 0.2064 | 0.2135
494.2 K, m1 = 1.242 | – | 0.1501 | 0.1532 | 0.1532
497.12 K, m1 = 2.621 | – | 0.1843 | 0.188 | 0.1951
497.2 K, m1 = 16.39 | – | 0.807 | 0.8237 | 0.8543
497.3 K, m1 = 0.4814 | – | 0.1323 | 0.135 | 0.1401
497.3 K, m1 = 7.863 | – | 0.3824 | 0.3901 | 0.4047
497.83 K, m1 = 0.0473 | – | 0.122 | 0.1245 | 0.1291
498.45 K, m1 = 0.1185 | – | 0.1233 | 0.1256 | 0.1303
499.3 K, m1 = 5.897 | – | 0.282 | 0.288 | 0.2988
499.52 K, m1 = 10.11 | – | 0.4719 | 0.4813 | 0.5
499.82 K, m1 = 12.7 | – | 0.5736 | 0.5853 | 0.6075
520.61 K, m1 = 1.242 | – | 0.1336 | 0.137 | 0.137
520.7 K, m1 = 7.863 | – | 0.3496 | 0.358 | 0.3733
521.37 K, m1 = 0.1185 | – | 0.111 | 0.1137 | 0.1187
521.42 K, m1 = 0.4814 | – | 0.119 | 0.1219 | 0.1271
522.35 K, m1 = 0.0473 | – | 0.1093 | 0.1125 | 0.1168
522.42 K, m1 = 2.621 | – | 0.1665 | 0.1706 | 0.1781
522.94 K, m1 = 10.11 | – | 0.4262 | 0.4365 | 0.4263
523.03 K, m1 = 12.7 | – | 0.5136 | 0.5262 | 0.5488
523.82 K, m1 = 16.39 | – | 0.7062 | 0.722 | 0.754
524.86 K, m1 = 5.897 | – | 0.2531 | 0.26 | 0.2718
545.92 K, m1 = 1.242 | – | 0.1203 | 0.124 | 0.124
547.5 K, m1 = 0.1185 | – | 0.0993 | 0.1018 | 0.1076
547.82 K, m1 = 16.39 | – | 0.6309 | 0.648 | 0.682
548.75 K, m1 = 0.4814 | – | 0.106 | 0.1091 | 0.1148
548.9 K, m1 = 12.7 | – | 0.4554 | 0.4693 | 0.494
549.25 K, m1 = 0.0473 | – | 0.0974 | 0.1009 | 0.106
549.32 K, m1 = 5.897 | – | 0.2338 | 0.2411 | 0.2537
550.4 K, m1 = 2.621 | – | 0.1487 | 0.1533 | 0.1615
573.1 K, m1 = 0.1185 | – | 0.0885 | 0.0922 | 0.0982
573.7 K, m1 = 5.897 | – | 0.2138 | 0.2229 | 0.239
573.81 K, m1 = 12.7 | – | 0.4053 | 0.422 | 0.449
573.86 K, m1 = 2.621 | – | 0.1352 | 0.1409 | 0.1502
574.03 K, m1 = 0.4814 | – | 0.0947 | 0.0986 | 0.1051
574.1 K, m1 = 0.0473 | – | 0.0871 | 0.0907 | 0.0966
574.21 K, m1 = 1.242 | – | 0.1064 | 0.111 | 0.111
574.23 K, m1 = 16.39 | – | 0.555 | 0.576 | 0.615
